As a reminder, the EC50 is the concentration at which the effect is half-maximal.

Where a chain is given by its changes, count along the chain named.

The target of one assay is T1, TRPV3-L508F (Homo sapiens, UniProt Q8NET8, L508F).
T1 sequence (Q8NET8 1-790 L508F): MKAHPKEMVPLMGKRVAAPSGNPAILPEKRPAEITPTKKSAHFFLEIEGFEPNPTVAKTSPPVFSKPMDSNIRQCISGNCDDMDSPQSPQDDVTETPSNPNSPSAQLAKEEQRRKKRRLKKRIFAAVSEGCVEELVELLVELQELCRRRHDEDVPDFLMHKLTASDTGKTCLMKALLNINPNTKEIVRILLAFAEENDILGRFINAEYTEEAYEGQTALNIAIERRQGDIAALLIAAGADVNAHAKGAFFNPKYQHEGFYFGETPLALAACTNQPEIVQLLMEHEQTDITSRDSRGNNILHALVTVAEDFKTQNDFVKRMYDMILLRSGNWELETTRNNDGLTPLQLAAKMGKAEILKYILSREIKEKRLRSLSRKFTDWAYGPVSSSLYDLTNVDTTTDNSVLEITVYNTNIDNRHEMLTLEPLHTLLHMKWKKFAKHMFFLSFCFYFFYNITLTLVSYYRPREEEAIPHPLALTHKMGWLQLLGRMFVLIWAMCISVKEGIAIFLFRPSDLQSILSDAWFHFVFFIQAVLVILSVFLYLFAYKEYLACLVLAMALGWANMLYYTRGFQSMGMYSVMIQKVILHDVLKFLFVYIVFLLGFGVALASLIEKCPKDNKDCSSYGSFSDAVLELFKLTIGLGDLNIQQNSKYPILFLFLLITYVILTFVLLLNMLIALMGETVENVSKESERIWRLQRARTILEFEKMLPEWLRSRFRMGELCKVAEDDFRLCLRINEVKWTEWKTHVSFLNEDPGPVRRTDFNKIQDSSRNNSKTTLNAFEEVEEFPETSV
Briefly: Whole-cell and single-channel recordings of the TRPV3-L508F mutant. The assay is classed as cell-based. To be noted: carvacrol 0.3-3.0 mM or 50 μM 2-APB.

A further assay deals with T2, TRPV3-I505A (Homo sapiens, UniProt Q8NET8, I505A).
T2 sequence (Q8NET8 1-790 I505A): T1 sequence (Q8NET8 1-790 L508F) with I505A, F508L
Briefly: Whole-cell and single-channel recordings of the TRPV3-I505A mutant. The assay is classed as cell-based. To be noted: carvacrol 0.3-3.0 mM or 50 μM 2-APB.

In assay [1] the test system is TRPV3. As to conditions: ref [38]; cited from earlier work.
Another assay deals with T3, TRPV3-L508A (Homo sapiens, UniProt Q8NET8, L508A).
T3 sequence (Q8NET8 1-790 L508A): T1 sequence (Q8NET8 1-790 L508F) with F508A
Briefly: Whole-cell and single-channel recordings of the TRPV3-L508A mutant. The assay is classed as cell-based. As to conditions: carvacrol 0.3-3.0 mM or 50 μM 2-APB.

The target of a further assay is T4, human TRPV3 (Homo sapiens, UniProt Q8NET8).
T4 sequence (Q8NET8 1-790): T1 sequence (Q8NET8 1-790 L508F) with F508L
Briefly: Inside-out single channel recordings of TRPV3. The assay is classed as biochemical.

The target in a further assay is TRPV3-F524A (Homo sapiens, UniProt Q8NET8, F524A). As to conditions: 50 μM 2-APB; the mutant also lost surface expression.
TRPV3-F524A, sequence (Q8NET8 whole entry F524A): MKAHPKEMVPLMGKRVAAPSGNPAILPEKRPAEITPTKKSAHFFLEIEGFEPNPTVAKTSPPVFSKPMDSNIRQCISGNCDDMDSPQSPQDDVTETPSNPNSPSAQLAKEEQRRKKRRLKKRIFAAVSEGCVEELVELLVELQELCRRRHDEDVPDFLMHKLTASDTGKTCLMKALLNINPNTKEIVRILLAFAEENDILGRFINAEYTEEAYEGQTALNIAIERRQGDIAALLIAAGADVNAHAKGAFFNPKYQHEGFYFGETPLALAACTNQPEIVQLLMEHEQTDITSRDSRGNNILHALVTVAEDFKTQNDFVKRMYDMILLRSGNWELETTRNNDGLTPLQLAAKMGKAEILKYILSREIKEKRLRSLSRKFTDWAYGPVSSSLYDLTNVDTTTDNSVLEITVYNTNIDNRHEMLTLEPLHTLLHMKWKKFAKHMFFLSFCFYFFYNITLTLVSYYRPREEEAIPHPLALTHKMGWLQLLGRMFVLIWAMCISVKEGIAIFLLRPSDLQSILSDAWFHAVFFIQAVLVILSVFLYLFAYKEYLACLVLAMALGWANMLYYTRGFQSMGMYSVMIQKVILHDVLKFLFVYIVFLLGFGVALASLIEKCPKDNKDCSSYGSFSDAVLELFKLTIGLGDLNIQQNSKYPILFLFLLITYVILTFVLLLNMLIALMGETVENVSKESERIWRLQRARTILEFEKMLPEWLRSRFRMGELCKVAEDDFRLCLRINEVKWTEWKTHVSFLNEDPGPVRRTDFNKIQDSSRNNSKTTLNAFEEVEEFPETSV
In the next assay the test system is keratinocytes. As to conditions: ref [35]; cited from earlier work.
The test system of the next assay is mice. As to conditions: ref [35]; cited from earlier work.
Assay [2] concerns TRPV3. To be noted: ref [30], cited from earlier work; for TRPV3 currents induced: in comparison with carvacrol.
Setting [3] is: +80 mV, carvacrol 300 μM or 2-APB 50 μM alone.
The mark [4] stands for this setting: FB 50 μM in the presence of 50 μM 2-APB, +80 mV.
Setting [5] is: FB 50 μM in the presence of 300 μM carvacrol, +80 mV.

Turning to `NCCOB(c1ccccc1)c1ccccc1` [2-APB, 2-aminoethyl diphenylborinate], the “activation of TRPV3 L508F mutant channel” value at TRPV3-L508F is “but not 2-APB”. Besides, on TRPV3-I505A, the “activation of TRPV3 I505A mutant channel” value is listed as “intact activation”. In the assay on TRPV3 [1], the “unitary conductance, 2-APB in the absence of dyclonine” value is recorded as 163.6 ± 6.4 pS and the “unitary conductance, 2-APB in the presence of TRPV3 inhibitor dyclonine” value is given as 179.2 ± 5.5 pS. Besides, on TRPV3-L508A, the “activation of TRPV3 L508A mutant channel” value is on record as “still able to activate the mutant channel”. Moreover, on human TRPV3 (setting [3]), the “single-channel open frequency (Freq)” value was 65.48 ± 12.31 Hz and the “single-channel open probability (Po)” value was 0.77 ± 0.07. Further, the “unitary conductance of TRPV3 single channels” value on human TRPV3 (inside-out patches, -80 mV to +80 mV, carvacrol 300 μM, 2-APB 50 μM, n = 4) was determined as 173.2 ± 5.3 pS. Moreover, the “sensitivity of TRPV3 F524A mutant channel” value on TRPV3-F524A is “reduced sensitivity”.

Consider forsythoside B [FB], for which, on human TRPV3 (setting [4]), the “Po after addition of inhibitor, 2-APB-activated channels” value was found to be 0.12 ± 0.08 and the “open Freq after addition of inhibitor, 2-APB-activated channels” value is listed as 20.07 ± 1.77 Hz. In addition, at human TRPV3 (setting [5]), the “Po after addition of inhibitor, carvacrol-activated channels” value came to 0.12 ± 0.03 and the “open Freq after addition of inhibitor, carvacrol-activated channels” value was 21.78 ± 2.59 Hz. In the assay on keratinocytes, the “effect on carvacrol-induced cytotoxicity of keratinocytes” value is reported as “attenuates”. Besides, the “effect on carvacrol-induced pruritus” value in the assay with mice is recorded as “attenuates pruritus”.

Regarding `CC12CCC(CC1=O)C2(C)C` (stereo not drawn) [camphor], the EC50 in the assay on TRPV3 [2] (read-out: EC50, activation of TRPV3, [32]) was ~6 mM.

Regarding `Cc1ccc(C(C)C)cc1` [p-Cymene], in the assay with TRPV3 [2], the TRPV3 currents induced entry is “small or negligible”.

As for `Cc1ccc(C)c(O)c1` [p-Xylenol], the TRPV3 currents induced entry in the assay on TRPV3 [2] is listed as “small or negligible”.

Source of the values: PMC8920929 (The Journal of Biological Chemistry, 2022).
